Consider 1 compound from ChEMBL document CHEMBL2034937, “Novel 3-Oxazolidinedione-6-aryl-pyridinones as Potent, Selective, and Orally Active EP3 Receptor Antagonists” (ACS Med Chem Lett, 2010).

Where only a bound is given, the exact number is not on record here.

The target in series [1] is T1, Prostaglandin E2 receptor EP3 subtype (Homo sapiens, UniProt P43115).
T1 sequence (P43115 whole entry): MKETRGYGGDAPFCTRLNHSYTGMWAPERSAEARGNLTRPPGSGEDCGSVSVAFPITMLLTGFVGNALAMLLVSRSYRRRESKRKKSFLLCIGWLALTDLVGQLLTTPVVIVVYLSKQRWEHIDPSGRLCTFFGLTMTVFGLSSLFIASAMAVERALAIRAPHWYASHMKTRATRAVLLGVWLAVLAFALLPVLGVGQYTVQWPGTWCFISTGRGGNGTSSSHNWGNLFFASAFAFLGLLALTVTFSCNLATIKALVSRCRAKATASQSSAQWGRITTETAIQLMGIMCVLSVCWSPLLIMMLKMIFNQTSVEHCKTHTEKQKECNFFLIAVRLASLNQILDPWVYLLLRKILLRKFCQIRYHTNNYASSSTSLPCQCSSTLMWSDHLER
Kind of series: Antagonist activity at human EP3c receptor expressed in human U2OS cells assessed as inhibition of PGE2-induced calcium mobilization after 24 hrs by FLIPR assay. Type of series: functional, cell-based. On the technique in general: Calcium flux is commonly read through the fluorescence of an indicator in the cells.

The target in series [2] is T2, Prostaglandin E2 receptor EP3 subtype (Rattus norvegicus, UniProt P34980).
T2 sequence (P34980 whole entry): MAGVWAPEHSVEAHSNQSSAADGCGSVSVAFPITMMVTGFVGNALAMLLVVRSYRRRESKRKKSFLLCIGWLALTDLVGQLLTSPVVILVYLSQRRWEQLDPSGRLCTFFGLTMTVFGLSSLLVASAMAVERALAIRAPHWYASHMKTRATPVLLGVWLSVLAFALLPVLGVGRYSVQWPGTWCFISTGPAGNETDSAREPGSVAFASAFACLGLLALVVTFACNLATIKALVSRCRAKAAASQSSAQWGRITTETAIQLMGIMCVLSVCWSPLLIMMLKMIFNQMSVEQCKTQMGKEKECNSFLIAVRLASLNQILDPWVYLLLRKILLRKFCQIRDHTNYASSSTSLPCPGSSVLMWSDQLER
As to the kind of experiment: Antagonist activity at rat EP3 receptor expressed in human U2OS cells co-expressing Gqi5 assessed as inhibition of PGE2-induced response after 24 hrs by FLIPR assay. Format: functional, cell-based.

Series [3] addresses Cytochrome P450 3A4 (Homo sapiens, UniProt P08684). As to the kind of experiment: Inhibition of CYP3A4. Type of series: ADME.
Series [4] can be described thus: Oral bioavailability in Sprague-Dawley rat at 2 mg/kg. Format: ADME, organism-based. To be noted: in vivo.
The target in series [5] is Cytochrome P450 2C9 (Homo sapiens, UniProt P11712). Kind of series: Inhibition of CYP2C9. Format: ADME.
Sequence of Cytochrome P450 2C9 (P11712 whole entry): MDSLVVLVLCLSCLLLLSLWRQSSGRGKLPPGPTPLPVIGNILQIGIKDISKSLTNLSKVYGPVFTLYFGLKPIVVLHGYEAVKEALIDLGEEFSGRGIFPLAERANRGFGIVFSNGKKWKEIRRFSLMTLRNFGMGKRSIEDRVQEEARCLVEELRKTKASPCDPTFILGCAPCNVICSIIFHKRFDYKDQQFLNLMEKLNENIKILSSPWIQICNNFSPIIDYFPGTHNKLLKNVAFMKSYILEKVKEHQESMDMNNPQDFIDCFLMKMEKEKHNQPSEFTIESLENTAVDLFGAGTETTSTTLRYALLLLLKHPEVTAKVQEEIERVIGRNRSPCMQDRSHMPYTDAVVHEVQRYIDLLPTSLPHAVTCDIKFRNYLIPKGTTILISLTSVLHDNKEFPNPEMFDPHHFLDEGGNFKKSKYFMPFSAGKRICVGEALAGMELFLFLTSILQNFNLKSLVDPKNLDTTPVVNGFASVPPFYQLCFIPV
Series [6] addresses T3, Prostaglandin G/H synthase 1 (Rattus norvegicus, UniProt Q63921).
T3 sequence (Q63921 whole entry): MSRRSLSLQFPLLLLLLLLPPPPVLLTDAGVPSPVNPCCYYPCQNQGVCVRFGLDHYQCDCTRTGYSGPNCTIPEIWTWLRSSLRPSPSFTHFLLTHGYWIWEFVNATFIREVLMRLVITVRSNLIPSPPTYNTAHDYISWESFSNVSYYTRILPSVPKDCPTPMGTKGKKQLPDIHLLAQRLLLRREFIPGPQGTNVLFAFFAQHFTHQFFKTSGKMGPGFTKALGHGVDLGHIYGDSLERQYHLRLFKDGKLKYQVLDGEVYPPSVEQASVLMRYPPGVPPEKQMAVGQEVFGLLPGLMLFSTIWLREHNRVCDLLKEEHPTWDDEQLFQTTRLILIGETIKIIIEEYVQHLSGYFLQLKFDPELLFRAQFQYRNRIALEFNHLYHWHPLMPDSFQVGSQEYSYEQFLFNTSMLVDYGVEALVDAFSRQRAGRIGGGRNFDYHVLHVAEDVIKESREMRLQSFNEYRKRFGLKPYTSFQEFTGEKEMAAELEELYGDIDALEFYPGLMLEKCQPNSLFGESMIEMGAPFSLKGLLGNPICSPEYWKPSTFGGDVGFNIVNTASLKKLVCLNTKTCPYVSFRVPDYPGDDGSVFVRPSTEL
Kind of series: Inhibition of COX1 in rat whole blood assessed as decreased PGE2 production. Type of series: tissue-based.

Series [7] has as its target T4, Cytochrome P450 1A2 (Homo sapiens, UniProt P05177).
T4 sequence (P05177 whole entry): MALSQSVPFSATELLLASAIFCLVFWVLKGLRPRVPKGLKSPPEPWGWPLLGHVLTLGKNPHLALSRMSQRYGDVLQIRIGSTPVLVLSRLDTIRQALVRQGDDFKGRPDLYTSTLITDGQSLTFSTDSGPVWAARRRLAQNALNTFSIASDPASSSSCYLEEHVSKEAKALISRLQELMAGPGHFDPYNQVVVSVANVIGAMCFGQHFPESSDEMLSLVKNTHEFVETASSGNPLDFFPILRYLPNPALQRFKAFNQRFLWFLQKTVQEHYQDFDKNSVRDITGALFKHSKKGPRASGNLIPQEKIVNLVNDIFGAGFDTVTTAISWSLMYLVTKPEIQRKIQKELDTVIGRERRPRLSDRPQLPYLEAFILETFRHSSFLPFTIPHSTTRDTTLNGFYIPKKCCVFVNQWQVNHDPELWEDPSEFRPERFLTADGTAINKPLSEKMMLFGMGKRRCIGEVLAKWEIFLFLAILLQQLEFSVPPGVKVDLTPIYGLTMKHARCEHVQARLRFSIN
As to the kind of experiment: Inhibition of CYP1A2. Format: ADME.

Sequence of Cytochrome P450 3A4 (P08684 whole entry): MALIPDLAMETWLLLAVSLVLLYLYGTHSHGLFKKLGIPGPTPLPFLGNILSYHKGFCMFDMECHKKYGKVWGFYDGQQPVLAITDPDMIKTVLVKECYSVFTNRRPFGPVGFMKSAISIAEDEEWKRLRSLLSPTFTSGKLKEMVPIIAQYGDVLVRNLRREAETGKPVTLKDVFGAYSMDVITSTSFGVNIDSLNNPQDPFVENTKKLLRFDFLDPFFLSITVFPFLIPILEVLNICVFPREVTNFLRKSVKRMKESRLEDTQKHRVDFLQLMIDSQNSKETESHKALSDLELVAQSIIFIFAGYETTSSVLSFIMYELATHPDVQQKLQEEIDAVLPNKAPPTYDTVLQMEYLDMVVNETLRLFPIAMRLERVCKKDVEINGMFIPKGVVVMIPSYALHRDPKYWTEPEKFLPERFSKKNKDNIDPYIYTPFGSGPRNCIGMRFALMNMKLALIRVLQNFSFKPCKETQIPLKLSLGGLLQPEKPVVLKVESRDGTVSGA

One may read the Ki as a dissociation constant, usually derived from enzyme kinetics or from competition with a known ligand. By IC50 is commonly meant the concentration at which inhibition is half-maximal. A word on the bioavailability: it is dose-corrected exposure relative to a reference, in per cent. Low readings indicate little systemic uptake, high ones much systemic uptake. For the compound `CC(C)C1(c2ccc(-c3ccc4ccccc4c3)[nH]c2=O)OC(O)=NC1=O` (configuration not stated), the Ki in series [1] and in series [2] was 0.01 µM throughout. The IC50 is above 50.1 µM in series [3], above 50.1 µM in series [5], above 100 µM in series [6] and above 50.1 µM in series [7]. In series [4], this compound yielded a bioavailability of 83%.
